# Measurements as given in patent US20190125735A1, “INHIBITION OF P38 MAPK FOR THE TREATMENT OF CANCER” (Board of Regents, The University of Texas System, priority 2015, published 2019).
# Legend:
# HMLER cells = test: Scratch/wound-healing assay, HMLER cells expressing FOXC2 variants; assay type: cell-based, human
# Description: For this, phosphomimetic FOXC2(S367E) and non-phosphorylatable FOXC2(S367A) mutants were generated and their ability to bestow mesenchymal and stem-cell traits relative to wild-type FOXC2 (referred to as FOXC2) was evaluated.
# HMLE-Snail-ER cells = test: 4-OHT inducible EMT in HMLE-Snail-ER cells, immunoblotting; assay type: cell-based, human; conditions: HMLE-Snail-ER concurrently exposed to 4-OHT and SB203580
# Description: To ascertain whether inhibiting p38 impedes the initiation of EMT, two dynamic models of EMT induction were utilized. First, MCF10A immortalized human mammary epithelial cells were treated with TGFβ1 which elicits EMT. […] Second, an inducible EMT system was used wherein a fusion protein, comprising the EMT-inducing transcription factors Snail or Twist and the estrogen-binding domain of the estrogen receptor (ER), is stably expressed in epithelial HMLE cells (HMLE-Snail-ER, HMLE-Twist-ER). Addition of the ER-ligand tamoxifen (4-OHT) promotes nuclear translocation of the Snail-ER and Twist-ER proteins and elicits EMT. […] Similarly, p38 shRNA abolished the capacity of HMLE-Twist-ER cells to undergo EMT (FIG. 4E, compare lanes 4 to 8) and to form spheres (FIG. 16F) in response to 4-OHT treatment.
# Immortalized human mammary epithelial (HMLE) cells expressing empty vector (pWZL), Snail, Twist, Goosecoid (GSC), or an activated form of TGFβ1, V12H-Ras-transformed HMLE (HMLER) and HMLER-FOXC2 cells were maintained as previously described (Elenbaas et al., 2001) For 4-hydroxy-tamoxifen (4-OHT) treatment, HMLE-Snail-ER or HMLE-Twist-ER cells were exposed to 20 nM 4-OHT for the indicated number of days. MCF7, MDA-MB-231 and SUM159 human breast cancer cells and the 4T1 mouse mammary carcinoma cells were cultured as described. […]
# [1] = test system: HMLE-Snail and HMLE-Twist cells; test: Invadopodia formation, degradation of FITC-conjugated gelatin; assay type: cell-based, human; conditions: within 16 h, vs vehicle-treated cells
# Description: FIGS. 15A-15L: p38 inhibition compromises the acquisition and maintenance of EMT and stem cell properties in vitro. […] Cells were harvested and the corresponding lysates were analyzed by immunoblotting for FOXC2, E-cadherin and mesenchymal markers. β-actin was used as a loading control. […] Cells were harvested at the indicated timepoints and the corresponding lysates were analyzed by immunoblotting for FOXC2, E-cadherin and mesenchymal markers. β-actin was used as a loading control. […] One thousand cells were seeded per well in ultra-low attachment plates and cultured for 7-10 days. Spheres with a diameter greater than 75 μm were counted. The data are reported as the number of spheres formed/1000 seeded cells±SEM. […] Data are presented as mean±SEM. […] The corresponding lysates were analyzed by immunoblotting for FOXC2, E-cadherin and mesenchymal markers. β-actin was used as a loading control. (F) The sphere-forming efficiency of 4-OHT-treated HMLE-Twist-ER cells, transduced with control shRNA (shControl) or p38 shRNA (shp38), was determined. […] (H) The sphere-forming efficiency of the indicated cells was determined in the presence of vehicle or SB203580. […] (J) The relative wound closure by the indicated cells, treated with vehicle or SB203580, was measured by image analysis and represented in a graphical format. […] Degradation of FITC-gelatin was quantified by image analysis. n=150 cells/sample. […]
# Foxc2 = test: Foxc2/FOXC2 protein immunoblotting in 4T1 cells; assay type: cell-based, mouse
# DU145 cells = test: Morphology and marker expression (qRTPCR, immunoblotting, IF) in DU145 cells; assay type: cell-based, human
# Description: Cell lines: Authenticated LNCaP, DU145, and PC3 cells were procured from ATCC and cultured in RPMI with 10% fetal bovine serum (FBS) with penicillin/streptomycin. Cells overexpressing EMT transcription factors and shRNA were also cultured in the same media. HEK293T cells were cultured in DMEM with 10% FBS and penicillin/streptomycin. All cell lines used for this study were recently confirmed negative for mycoplasma contamination.
# Immunoblotting, Immunofluorescence, RTPCR, wound healing- and tumorsphere assays were performed as previously described (Sarkar et al., 2015). Cell viability (MTS) was assessed using the CellTiter96 Aqueous One-Solution Cell Proliferation Assay kit (Promega).
structure (smiles),measurement,setting,value
"C[S+]([O-])c1ccc(-c2nc(-c3ccc(F)cc3)c(-c3ccncc3)[nH]2)cc1 (stereo not shown) [SB203580, 4-(4-Fluorophenyl)-2-(4-methylsulfinylphenyl)-5-(4-pyridyl) 1H-imidazole]",Decrease in wound-closure,HMLER cells; HMLER-FOXC2(S367E) cells,< 30%
same,Inhibition of migration (wound closure),HMLER cells; HMLER-FOXC2 cells,> 70%
same,Inhibition of migration (wound closure),HMLER cells; HMLER-vector cells,> 70%
same,EMT and FOXC2 upregulation,HMLE-Snail-ER cells,failed to undergo EMT or upregulate FOXC2
same,Degradation of underlying extracellular matrix (FITC-gelatin),[1],failed to do so to the same degree
same,Phosphomimetic FOXC2(S367E) levels,Foxc2; 4T1-FOXC2(S367E) cells,remained unaltered
same,Endogenous Foxc2 protein levels,"Foxc2; 4T1 cells, 24 h",significant reduction of endogenous Foxc2 protein levels
same,Endogenous Foxc2 protein levels,Foxc2; vector-transduced 4T1 cells,abolished endogenous Foxc2 protein levels
same,AR and PSA expression,"DU145 cells; DU145, 5 μM, 7 days",restoration of AR and PSA expression
same,Expression of Bmi1 and Sox2,"DU145 cells; DU145, 5 μM, 7 days",significant reduction
same,FOXC2 expression,"DU145 cells; DU145, 5 μM, 7 days",dramatic loss in FOXC2 expression
same,Morphology / phenotype,"DU145 cells; DU145, 5 μM, 7 days",acquisition of an epithelial phenotype
same,"Expression of AR, PSA and E-cadherin over time (qRTPCR)","DU145 cells; DU145, days 0-7 after treatment","consistently increased right after 48 hours, but reached highest levels at day 7"
